Assay results taken from patent publication US9823260B2, “Method to increase bioavailability of the delta-opioid receptor for management of pain and neuropsychiatric disorders” (priority 2014, dated 2017).

Legend:
Assay type in all cases: in vivo
male C57BL6J mice [1] = test: Warm water tail withdrawal assay (thermal nociception)
Procedure: (§1) The first three graphs in FIG. 2 show the function response of DOR on the surface. An EPAC FRET sensor was used with live cell imaging under physiologic conditions of 37° C. The modulation of the cAMP activity was determined by performing a ratiometric analysis of an the donor fluorophore (Cyan Fluorescent Protein) image divided by the FRET image yielding a blue color for low cAMP and red for high cAMP. DOR was concomitantly visualized by fluorescent tagging. […] The two images on the bottom-right of FIG. 2 show data in an experiment in which mechanical allodynia and tail withdrawal latency was performed in male C57BL6J mice 9-10 weeks old to determine the effects of the DOR agonist SNC-80 in the presence or absence of PTEN inhibition. […] All mice received SNC-80 (10 mg/kg IP). Additionally, pretreatment of mice with the PTEN inhibitor bpv(Phen) increased the antinociceptive effect of the DOR agonist SNC-80. Together, these methods can be used for stimulated DOR delivery as a convergent strategy for improving the efficacy of DOR agonists.
In this experiment, thermal nociception was determined by using the warm water tail withdrawal assay, with a cut-off of 12 s at 52.5° C. water temperature. After 3 basal measurements, mice were injected with vehicle or bpv(phen)(10 mg/kg SC), and returned to their home cages. […] They were subsequently tested every 15 minutes for 90 minutes. All animals were male C57b16J mice of 9-10 weeks of age, n=8 per group. […] Mechanical allodynia was tested using standard protocols (such as the protocols disclosed by Pradhan et al., 2009, PMID: 1941254) on male C57b16J mice 9-10 weeks old, n=8 per group. Mice were injected with vehicle or bpv(phen)(10 mg/kg), and tested four hours after for reduced allodynia in response to SNC-80. […] Mechanical hyperalgesia was tested in a CFA model for chronic pain. […]
As shown next in FIG. 12 (left), thermal nociception was determined by using the warm water tail withdrawal assay, with a cut-off of 12 s at 52.5° C. water temperature. […]

mice = test: Mechanical hyperalgesia in a CFA model for chronic pain; settings: CFA 72 hours; bpv(phen) 10 mg/kg SC, four hours later SNC 80 3 mg/kg IP
Procedure: In this experiment, thermal nociception was determined by using the warm water tail withdrawal assay, with a cut-off of 12 s at 52.5° C. water temperature. After 3 basal measurements, mice were injected with vehicle or bpv(phen)(10 mg/kg SC), and returned to their home cages. Four hours post-injection, tail immersion responses were determined and mice were injected with vehicle or SNC80 (10 mg/kg IP). They were subsequently tested every 15 minutes for 90 minutes. All animals were male C57b16J mice of 9-10 weeks of age, n=8 per group. […] Mechanical allodynia was tested using standard protocols (such as the protocols disclosed by Pradhan et al., 2009, PMID: 1941254) on male C57b16J mice 9-10 weeks old, n=8 per group. Mice were injected with vehicle or bpv(phen)(10 mg/kg), and tested four hours after for reduced allodynia in response to SNC-80. […] Mechanical hyperalgesia was tested in a CFA model for chronic pain. After baseline recordings, mice were injected with CFA (13 μl, intraplantar) and were tested 72 hours later. On the test day, mice received either bpv(phen)(10 mg/kg SC) or vehicle. […]
(§2) As shown next in FIG. 12 (left), thermal nociception was determined by using the warm water tail withdrawal assay, with a cut-off of 12 s at 52.5° C. water temperature. […] Four hours post-injection, tail immersion responses were determined and mice were injected with vehicle or SNC80 (10 mg/kg IP). […]

male C57BL6J mice [2] = test: Mechanical allodynia test
Procedure: as §1, with “Additionally, pretreatment of mice with the PTEN inhibitor bpv(Phen) increased the antinociceptive effect of the DOR agonist SNC-80. Together, these methods can be used for stimulated DOR delivery as a convergent strategy for improving the efficacy of DOR agonists.” left out
In this experiment, thermal nociception was determined by using the warm water tail withdrawal assay, with a cut-off of 12 s at 52.5° C. water temperature. […] Four hours post-injection, tail immersion responses were determined and mice were injected with vehicle or SNC80 (10 mg/kg IP). […]
as §2

[3] = 2 hour pretreatment with bpV(phen) 10 mg/kg, SNC-80 10 mg/kg IP, versus vehicle

O.O.O.OO.OO.[K+].[OH-].[V].c1cnc2c(c1)ccc1cccnc12 [bpV(phen)]
tail withdrawal latency with SNC-80 (male C57BL6J mice [1]; [3]): increased compared to vehicle control treated mice
analgesic response to PTEN inhibition alone (male C57BL6J mice [1]; bpV(phen) without SNC-80, mechanical allodynia and tail withdrawal): did not induce an analgesic response
tail immersion response versus baseline without SNC80 (male C57BL6J mice [1]; vehicle or bpv(phen) 10 mg/kg SC, no SNC80, 52.5° C., tested every 15 minutes for 90 minutes): did not show any significant deviation from the baseline
mechanical hyperalgesia response to SNC 80 (mice): showed a response to SNC80
mechanical allodynia (threshold) with SNC-80 (male C57BL6J mice [2]; [3]): increased compared to vehicle control treated mice
reduced allodynia in response to SNC-80 (male C57BL6J mice [2]; bpv(phen) 10 mg/kg, tested four hours after): showed a response
